# Active and inactive are the calls of the source. The rule behind the calls is not given here.
# Columns and labels:
# [1] = molecular target: Alpha-1A adrenergic receptor (Homo sapiens) (UniProt P35348); experiment: Inhibition of adrenergic alpha-1A receptor (unknown origin) at 10 uM relative to control
# [2] = molecular target: Alpha-2A adrenergic receptor (Homo sapiens) (UniProt P08913); experiment: Inhibition of adrenergic alpha-2A receptor (unknown origin) at 10 uM relative to control
# Rattus norvegicus = experiment: Antidepressant-like activity in Wistar rat assessed as reduction in immobility time at 0.04 to […], po administered 60 mins prior to testing and measured for 5 mins test period in presence of 5-HT1A antagonist WAY100635 by Porsolt-forced swim test; type: functional, organism-based; details: dose lower 0.04 mg/kg, dose upper […], time 65.0 min
# in vitro = details: human, Caco-2, pH 6.5
# [3] = molecular target: T1, Adrenergic receptor alpha-1 (Rattus norvegicus, UniProt P15823+P23944+P43140); experiment: Displacement of [3H]-prazosin from alpha1 adrenergic receptor in rat cortex measured after 30 mins by microbeta2 scintillation counting method; type: tissue-based
# T1 sequence (P15823 whole entry): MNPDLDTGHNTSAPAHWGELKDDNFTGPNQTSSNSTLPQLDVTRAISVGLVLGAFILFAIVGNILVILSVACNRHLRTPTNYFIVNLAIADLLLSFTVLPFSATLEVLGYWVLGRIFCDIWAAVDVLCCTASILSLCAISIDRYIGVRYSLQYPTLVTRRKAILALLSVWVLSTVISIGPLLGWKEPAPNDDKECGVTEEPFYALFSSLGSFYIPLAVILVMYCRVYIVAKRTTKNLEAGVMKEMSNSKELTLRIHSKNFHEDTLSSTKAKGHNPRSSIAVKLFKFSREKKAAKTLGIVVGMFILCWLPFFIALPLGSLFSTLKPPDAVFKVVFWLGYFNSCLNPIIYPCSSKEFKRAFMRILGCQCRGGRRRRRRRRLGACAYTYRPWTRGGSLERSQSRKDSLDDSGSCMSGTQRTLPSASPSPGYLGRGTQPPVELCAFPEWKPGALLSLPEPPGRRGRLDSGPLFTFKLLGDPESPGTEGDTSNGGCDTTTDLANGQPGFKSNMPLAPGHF
# T1 sequence (P23944 whole entry): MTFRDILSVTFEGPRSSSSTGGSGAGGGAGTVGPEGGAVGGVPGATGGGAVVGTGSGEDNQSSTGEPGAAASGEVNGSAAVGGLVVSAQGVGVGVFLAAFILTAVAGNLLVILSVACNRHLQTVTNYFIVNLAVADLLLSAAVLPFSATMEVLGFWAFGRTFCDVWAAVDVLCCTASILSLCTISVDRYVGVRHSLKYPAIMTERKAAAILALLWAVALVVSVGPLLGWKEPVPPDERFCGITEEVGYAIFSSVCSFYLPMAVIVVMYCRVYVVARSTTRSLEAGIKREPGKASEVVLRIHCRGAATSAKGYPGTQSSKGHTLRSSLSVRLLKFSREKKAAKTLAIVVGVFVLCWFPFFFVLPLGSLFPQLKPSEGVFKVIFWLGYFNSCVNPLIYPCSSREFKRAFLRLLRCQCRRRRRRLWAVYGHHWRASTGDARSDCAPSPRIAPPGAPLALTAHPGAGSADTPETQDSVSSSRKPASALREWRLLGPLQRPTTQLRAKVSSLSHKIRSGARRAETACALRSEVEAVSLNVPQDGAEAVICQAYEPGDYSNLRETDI
# T1 sequence (P43140 whole entry): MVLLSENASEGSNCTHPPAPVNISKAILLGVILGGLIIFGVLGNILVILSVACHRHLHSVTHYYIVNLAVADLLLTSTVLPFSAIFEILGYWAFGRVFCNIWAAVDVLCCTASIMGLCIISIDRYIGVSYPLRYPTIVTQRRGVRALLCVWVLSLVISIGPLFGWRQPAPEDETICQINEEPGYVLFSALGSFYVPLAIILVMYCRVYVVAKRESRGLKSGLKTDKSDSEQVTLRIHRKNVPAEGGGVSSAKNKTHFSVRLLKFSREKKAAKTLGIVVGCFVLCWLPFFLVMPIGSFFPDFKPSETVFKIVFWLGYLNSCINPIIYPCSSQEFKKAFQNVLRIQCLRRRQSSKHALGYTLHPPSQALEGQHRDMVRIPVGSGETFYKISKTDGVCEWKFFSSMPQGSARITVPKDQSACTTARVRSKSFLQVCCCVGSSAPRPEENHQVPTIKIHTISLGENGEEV
# [4] = molecular target: Muscarinic acetylcholine receptor M3 (Homo sapiens) (UniProt P20309); experiment: Inhibition of muscarinic M3 receptor (unknown origin) at 10 uM relative to control
# [5] = molecular target: Prostaglandin G/H synthase 1 (Homo sapiens) (UniProt P23219); experiment: Inhibition of COX1 (unknown origin) at 10 uM relative to control
# [6] = molecular target: 5-hydroxytryptamine receptor 2A (Homo sapiens) (UniProt P28223); experiment: Inhibition of 5-HT2A (unknown origin) at 10 uM relative to control
# [7] = In vivo biased agonist activity at 5-HT1A receptor in rat prefrontal brain cortex assessed as time required to cause maximum increase in ERK1/2 phosphorylation levels at […], po administered as single dose by Alphalisa assay; type: functional
# Sequence of 5-hydroxytryptamine receptor 2A (Homo sapiens) (P28223 whole entry): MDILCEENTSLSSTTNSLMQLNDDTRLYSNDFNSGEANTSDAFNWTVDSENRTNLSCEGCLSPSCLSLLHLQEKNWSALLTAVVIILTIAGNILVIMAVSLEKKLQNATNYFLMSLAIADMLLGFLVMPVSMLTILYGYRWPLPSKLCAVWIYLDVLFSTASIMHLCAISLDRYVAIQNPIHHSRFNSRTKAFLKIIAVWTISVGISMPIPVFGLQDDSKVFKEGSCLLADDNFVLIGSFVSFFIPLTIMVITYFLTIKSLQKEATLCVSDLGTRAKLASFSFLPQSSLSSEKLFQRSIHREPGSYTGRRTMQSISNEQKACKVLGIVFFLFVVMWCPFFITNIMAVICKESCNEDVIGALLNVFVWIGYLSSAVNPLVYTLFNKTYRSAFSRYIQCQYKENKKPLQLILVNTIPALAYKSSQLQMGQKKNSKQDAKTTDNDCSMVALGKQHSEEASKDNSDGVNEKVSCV
# Sequence of Muscarinic acetylcholine receptor M3 (Homo sapiens) (P20309 whole entry, looked up): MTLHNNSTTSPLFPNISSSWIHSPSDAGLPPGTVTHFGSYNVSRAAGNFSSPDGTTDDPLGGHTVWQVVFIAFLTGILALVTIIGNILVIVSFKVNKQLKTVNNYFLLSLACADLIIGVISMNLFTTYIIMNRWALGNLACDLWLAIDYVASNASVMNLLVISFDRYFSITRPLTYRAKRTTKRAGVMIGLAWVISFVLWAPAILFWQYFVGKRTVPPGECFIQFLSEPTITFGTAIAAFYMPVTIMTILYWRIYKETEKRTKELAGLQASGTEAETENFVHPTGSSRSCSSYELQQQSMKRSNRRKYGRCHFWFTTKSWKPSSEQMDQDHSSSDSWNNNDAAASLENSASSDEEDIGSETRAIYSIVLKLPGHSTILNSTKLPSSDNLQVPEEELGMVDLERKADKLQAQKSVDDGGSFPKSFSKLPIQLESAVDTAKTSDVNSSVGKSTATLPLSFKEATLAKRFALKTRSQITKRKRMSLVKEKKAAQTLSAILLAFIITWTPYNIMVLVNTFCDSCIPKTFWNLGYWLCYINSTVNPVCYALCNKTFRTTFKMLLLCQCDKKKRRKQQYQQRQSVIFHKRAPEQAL
# Sequence of Alpha-2A adrenergic receptor (Homo sapiens) (P08913 whole entry): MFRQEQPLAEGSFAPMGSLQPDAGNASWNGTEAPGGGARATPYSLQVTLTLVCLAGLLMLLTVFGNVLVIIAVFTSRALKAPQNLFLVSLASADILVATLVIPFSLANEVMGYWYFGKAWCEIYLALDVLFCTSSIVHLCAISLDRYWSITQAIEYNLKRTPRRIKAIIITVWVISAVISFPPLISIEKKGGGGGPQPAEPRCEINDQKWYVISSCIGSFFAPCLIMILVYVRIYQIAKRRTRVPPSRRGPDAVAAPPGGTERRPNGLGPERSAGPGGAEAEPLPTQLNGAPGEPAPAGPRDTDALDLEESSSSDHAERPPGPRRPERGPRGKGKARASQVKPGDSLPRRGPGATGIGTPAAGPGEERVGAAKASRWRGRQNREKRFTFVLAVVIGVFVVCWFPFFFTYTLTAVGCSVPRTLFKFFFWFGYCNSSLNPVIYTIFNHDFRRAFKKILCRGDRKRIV
# Sequence of Alpha-1A adrenergic receptor (Homo sapiens) (P35348 whole entry): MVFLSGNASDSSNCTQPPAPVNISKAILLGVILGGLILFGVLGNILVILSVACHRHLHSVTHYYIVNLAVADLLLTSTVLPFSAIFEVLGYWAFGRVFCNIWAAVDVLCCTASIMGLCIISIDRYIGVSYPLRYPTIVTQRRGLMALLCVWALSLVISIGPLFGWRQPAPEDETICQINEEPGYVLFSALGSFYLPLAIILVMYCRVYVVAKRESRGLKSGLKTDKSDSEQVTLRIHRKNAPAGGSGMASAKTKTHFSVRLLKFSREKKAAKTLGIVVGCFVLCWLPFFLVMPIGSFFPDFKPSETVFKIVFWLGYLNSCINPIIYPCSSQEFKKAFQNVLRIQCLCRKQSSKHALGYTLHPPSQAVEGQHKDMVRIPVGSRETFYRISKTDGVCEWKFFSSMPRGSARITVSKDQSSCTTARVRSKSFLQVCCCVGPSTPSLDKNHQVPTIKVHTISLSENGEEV
# Sequence of Prostaglandin G/H synthase 1 (Homo sapiens) (P23219 whole entry): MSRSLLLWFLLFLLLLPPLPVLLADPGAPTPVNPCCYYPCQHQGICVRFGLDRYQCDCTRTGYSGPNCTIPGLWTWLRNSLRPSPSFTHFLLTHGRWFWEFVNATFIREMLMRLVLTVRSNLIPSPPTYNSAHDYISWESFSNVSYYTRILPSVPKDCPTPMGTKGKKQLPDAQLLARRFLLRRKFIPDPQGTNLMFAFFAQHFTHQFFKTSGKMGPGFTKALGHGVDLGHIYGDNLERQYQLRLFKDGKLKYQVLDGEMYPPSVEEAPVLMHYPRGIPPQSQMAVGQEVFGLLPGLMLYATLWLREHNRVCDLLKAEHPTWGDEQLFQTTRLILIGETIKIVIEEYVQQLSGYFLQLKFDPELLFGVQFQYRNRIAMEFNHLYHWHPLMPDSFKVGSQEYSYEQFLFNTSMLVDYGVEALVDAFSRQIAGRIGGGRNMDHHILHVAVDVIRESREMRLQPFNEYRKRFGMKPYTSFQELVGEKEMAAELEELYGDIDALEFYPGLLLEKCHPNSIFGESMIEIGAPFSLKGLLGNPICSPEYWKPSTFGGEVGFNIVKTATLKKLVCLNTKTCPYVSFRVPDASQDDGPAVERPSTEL
compound,measurement,setting,value
O=C(c1ccc(F)c(Cl)c1)N1CCC(F)(CNCCOc2ccccn2)CC1,inhibition,[1],99.7%
same,inhibition,[2],94.3%
same,Activity,Rattus norvegicus,inactive
same,Papp A→B,in vitro,25.9 ×10⁻⁶ cm/s
same,pKi,[3],6.78
same,inhibition,[4],9.7%
same,inhibition,[5],11.9%
same,inhibition,[6],9%
same,Time,[7],15 min
